Experiments:
[1] = biological target: T1, Purine nucleoside phosphorylase (Homo sapiens) (UniProt P00491); experiment: Inhibitory activity against Purine nucleoside phosphorylase evaluated by radiochemical assay at <300 uM; type: tissue-based; settings: Urine
T1 sequence (whole entry): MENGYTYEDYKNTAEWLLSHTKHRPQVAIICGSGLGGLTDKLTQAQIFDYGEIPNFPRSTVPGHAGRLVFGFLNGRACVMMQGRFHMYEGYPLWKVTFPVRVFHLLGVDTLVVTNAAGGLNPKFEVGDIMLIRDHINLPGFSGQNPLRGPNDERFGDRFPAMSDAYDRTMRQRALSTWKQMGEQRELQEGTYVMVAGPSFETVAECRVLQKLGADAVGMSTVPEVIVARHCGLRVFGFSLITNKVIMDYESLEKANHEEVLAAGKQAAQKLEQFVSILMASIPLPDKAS

[2] = biological target: T2, Purine nucleoside phosphorylase (Homo sapiens, UniProt P00491)
T2 sequence (P00491 whole entry): T1 sequence (whole entry)

[3] = system: MOLT-4; experiment: cells; settings: Homo sapiens
[4] = biological target: T1, Purine nucleoside phosphorylase (Homo sapiens); experiment: Inhibitory activity against Purine nucleoside phosphorylase evaluated by radiochemical assay concentration <300 uM; type: tissue-based
[5] = biological target: T1, Purine nucleoside phosphorylase (Homo sapiens); experiment: Inhibitory activity against Purine nucleoside phosphorylase evaluated by radiochemical assay; type: tissue-based; settings: Urine; concentration not given here
[6] = biological target: T1, Purine nucleoside phosphorylase (Homo sapiens); experiment: Inhibitory activity against Purine nucleoside phosphorylase evaluated by radiochemical assay <300 uM; type: tissue-based; settings: Urine

Row | IC50 [2] | IC50 [3] | Structure (SMILES) | further results
1 | – | – | Oc1nc(S)n(CCc2ccccc2)c2ncnc1-2 | inhibition [1]: 10.9%
2 | > 150 µM | – | Nc1nc(O)c2nc(NC=O)nc-2n1Cc1ccccc1 | –
3 | 4.6 µM | > 25 µM | Nc1nc2c(O)nc(N)n(Cc3cccs3)c-2n1 | –
4 | 8.9 µM | – | COc1ccc(Cn2c(N)nc(O)c3nc(N)nc2-3)cc1 | –
5 | > 75 µM | – | CSc1nc(O)c2nc(N)nc-2n1Cc1ccccc1 | –
6 | 131 µM | – | Nc1nc2c(S)ncn(Cc3ccccc3)c-2n1 | –
7 | 13.4 µM | 28.6 µM | O=c1[nH]c(=O)n(Cc2ccccc2)c2nc[nH]c12 | –
8 | – | – | N#Cc1ccc(Cn2cnc(O)c3ncnc2-3)cc1 | inhibition [4]: 22.2%
9 | – | 1.47 µM | Nc1nc(O)c2nc(N)n(Cc3ccco3)c2n1 | –
10 | 29.6 µM | 35 µM | Nc1nc(O)c2ncn(Cc3ccccc3)c2n1 | –
11 | – | – | CSc1nc(O)c2ncnc-2n1Cc1ccccc1 | inhibition [4]: 23.3%
12 | 5.2 µM | 42.5 µM | Nc1nc2c(O)nc(N)n(Cc3ccco3)c-2n1 | –
13 | – | – | Oc1nc(S)n(Cc2ccccc2)c2ncnc1-2 | inhibition [5]: 78.3%
14 | – | – | O=[N+]([O-])c1ccc(Cn2cnc(O)c3ncnc2-3)cc1 | inhibition [4]: 13.1%
15 | – | 0.82 µM | Nc1nc(O)c2nc(N)n(Cc3cccs3)c2n1 | –
16 | 0.47 µM | 0.77 µM | Nc1nc(O)c2nc(N)n(Cc3ccccc3)c2n1 | –
17 | – | – | Oc1ncn(Cc2ccc(Cl)c(Cl)c2)c2ncnc1-2 | inhibition [4]: 36.9%
18 | – | – | Oc1ncn(CCc2ccccc2)c2ncnc1-2 | inhibition [4]: 26.8%
19 | 95 µM | – | Nc1[nH]c[n+](Cc2ccccc2)c2ncnc1-2 | –
20 | 112 µM | 204 µM | Oc1ncn(Cc2ccccc2)c2ncnc1-2 | inhibition [6]: 81%

— ChEMBL document CHEMBL1125439, “Inhibitors of human purine nucleoside phosphorylase. Synthesis and biological activities of 8-amino-3-benzylhypoxanthine and related analogues” (J Med Chem, 1992)
